In ChEMBL document CHEMBL6071129, “Strategies that regulate Hippo signaling pathway for novel anticancer therapeutics” (Eur J Med Chem, 2024):

How the values were obtained:
[1] = Antiproliferative activity against human SKGT4 cells incubated for 72 hrs by MTS assay; assay type: functional, cell-based; settings: SKGT4, 72 h
[2] = Antiproliferative activity against human JHESO cells incubated for 72 hrs by MTS assay; assay type: functional, cell-based
[3] = Antiproliferative activity against human FLO-1 cells incubated for 72 hrs by MTS assay; assay type: functional, cell-based; settings: FLO-1, 72 h
[4] = Antiproliferative activity against human OACP cells incubated for 72 hrs by MTS assay; assay type: functional, cell-based
A549 = assay: Antiproliferative activity against human A549 cells incubated for 48 hrs by SRB method; assay type: functional, cell-based; settings: A549, 48 h
NCI-H441 = assay: Antiproliferative activity against human NCI-H441 cells incubated for 48 hrs by SRB method; assay type: functional, cell-based; settings: NCI-H441, 48 h
NCI-H1975 = assay: Antiproliferative activity against human NCI-H1975 cells incubated for 48 hrs by SRB method; assay type: functional, cell-based; settings: NCI-H1975, 48 h
A2780 = assay: Antiproliferative activity against human A2780 cells incubated for 48 hrs by MTT assay; assay type: functional, cell-based; settings: A2780, 48 h
HT-29 = assay: Antiproliferative activity against human HT-29 cells incubated for 48 hrs by MTT assay; assay type: functional, cell-based; settings: HT-29, 48 h
HCT-116 = assay: Antiproliferative activity against human HCT-116 cells incubated for 48 hrs by MTT assay; assay type: functional, cell-based; settings: HCT-116, 48 h
[5] = Antiproliferative activity against human HCA46 cells incubated for 48 hrs by MTT assay; assay type: functional, cell-based; settings: HCA46, 48 h
[6] = Antiproliferative activity against human A2780/CP70 cells incubated for 48 hrs by MTT assay; assay type: functional, cell-based; settings: A2780/CP70, 48 h
[7] = Antiproliferative activity against CMT47 cells incubated for 48 hrs; assay type: functional; settings: Canis lupus familiaris, read-out: ED50 (the source's name)
[8] = Antiproliferative activity against CMT9 cells incubated for 48 hrs; assay type: functional; settings: Canis lupus familiaris, read-out: ED50 (the source's name)
[9] = Antiproliferative activity against human HBC5 cells incubated for 96 hrs by MTT assay; assay type: functional, cell-based; settings: HBC5, 96 h
[10] = Antiproliferative activity against human HBC4 cells incubated for 96 hrs by MTT assay; assay type: functional, cell-based; settings: HBC4, 96 h
MDA-MB-231 = assay: Antiproliferative activity against human MDA-MB-231 cells incubated for 96 hrs by MTT assay; assay type: functional, cell-based; settings: MDA-MB-231, 96 h
[11] = Inhibition of TEAD (unknown origin) to YAP (unknown origin) protein-protein interaction expressed in HEK293T cells transfected with 8XGTIIC-Luciferase and CMV-betagalactosidase incubated for 24 hrs by luciferase reporter assay; assay type: cell-based, Homo sapiens
[12] = Inhibition of TEAD (unknown origin) by YAP reporter assay; set-up: species or system Homo sapiens
NCI-H2052 = assay: Antiproliferative activity against human NCI-H2052 cells; assay type: functional, cell-based
[13] = tested on: Transcriptional enhancer factor TEF-3-Lipid; assay: Inhibition of His-tagged TEAD4 (unknown origin) to lipid (unknown origin) interaction preincubated for 30 mins followed by biotinylated lipid addition and measured after 60 mins by TR-FRET assay; set-up: species or system Homo sapiens
[14] = Inhibition of His-tagged TEAD2 (unknown origin) to TAZ (unknown origin) protein-protein interaction preincubated for 30 mins followed by biotinylated YAP addition and measured after 60 mins by TR-FRET assay; set-up: species or system Homo sapiens
[15] = Inhibition of His-tagged TEAD4 (unknown origin) to TAZ (unknown origin) protein-protein interaction preincubated for 30 mins followed by biotinylated YAP addition and measured after 60 mins by TR-FRET assay; set-up: species or system Homo sapiens
[16] = tested on: Transcriptional enhancer factor TEF-1-Lipid; assay: Inhibition of His-tagged TEAD1 (unknown origin) to lipid (unknown origin) interaction preincubated for 30 mins followed by biotinylated lipid addition and measured after 60 mins by TR-FRET assay; set-up: species or system Homo sapiens
[17] = Inhibition of His-tagged TEAD3 (unknown origin) to TAZ (unknown origin) protein-protein interaction preincubated for 30 mins followed by biotinylated YAP addition and measured after 60 mins by TR-FRET assay; set-up: species or system Homo sapiens
[18] = Inhibition of His-tagged TEAD1 (unknown origin) to TAZ (unknown origin) protein-protein interaction preincubated for 30 mins followed by biotinylated YAP addition and measured after 60 mins by TR-FRET assay; set-up: species or system Homo sapiens
[19] = Inhibition of His-tagged TEAD1 (unknown origin) to YAP (unknown origin) protein-protein interaction preincubated for 30 mins followed by biotinylated YAP addition and measured after 60 mins by TR-FRET assay; set-up: species or system Homo sapiens
[20] = Inhibition of His-tagged TEAD3 (unknown origin) to YAP (unknown origin) protein-protein interaction preincubated for 30 mins followed by biotinylated YAP addition and measured after 60 mins by TR-FRET assay; set-up: species or system Homo sapiens
[21] = Inhibition of His-tagged TEAD2 (unknown origin) to YAP (unknown origin) protein-protein interaction preincubated for 30 mins followed by biotinylated YAP addition and measured after 60 mins by TR-FRET assay; set-up: species or system Homo sapiens
[22] = tested on: Transcriptional enhancer factor TEF-4-Lipid; assay: Inhibition of His-tagged TEAD2 (unknown origin) to lipid (unknown origin) interaction preincubated for 30 mins followed by biotinylated lipid addition and measured after 60 mins by TR-FRET assay; set-up: species or system Homo sapiens
[23] = Inhibition of His-tagged TEAD4 (unknown origin) to YAP (unknown origin) protein-protein interaction preincubated for 30 mins followed by biotinylated YAP addition and measured after 60 mins by TR-FRET assay; set-up: species or system Homo sapiens
[24] = tested on: Transcriptional enhancer factor TEF-5-Lipid; assay: Inhibition of His-tagged TEAD3 (unknown origin) to lipid (unknown origin) interaction preincubated for 30 mins followed by biotinylated lipid addition and measured after 60 mins by TR-FRET assay; set-up: species or system Homo sapiens
OVCAR-8 [25] = assay: Antiproliferative activity against human OVCAR-8 cells assessed as minimum efficacy by CellTiter-Glo luminescent cell viability assay; assay type: functional
[26] = Antiproliferative activity against human VMRC-LCD cells by CellTiter-Glo luminescent cell viability assay; assay type: functional, cell-based
[27] = Antiproliferative activity against human HCC1576 cells assessed as minimum efficacy by CellTiter-Glo luminescent cell viability assay; assay type: functional
[28] = Antiproliferative activity against human HCC1576 cells by CellTiter-Glo luminescent cell viability assay; assay type: functional, cell-based
OVCAR-8 [29] = assay: Antiproliferative activity against human OVCAR-8 cells by CellTiter-Glo luminescent cell viability assay; assay type: functional, cell-based

O=S(=O)(c1ccc2c(c1)C(=NO)c1cc(S(=O)(=O)N3CCCCC3)ccc1-2)N1CCCCC1
IC50 [1]: < 1000 nM | IC50 [2]: < 1000 nM | IC50 [3]: < 1000 nM | IC50 [4]: < 1000 nM

Cc1cc2c(C(C)C)c(O)c(O)c(C=O)c2c(O)c1-c1c(C)cc2c(C(C)C)c(O)c(O)c(C=O)c2c1O
IC50 (A549): 10000 nM | IC50 (NCI-H441): 19900 nM | IC50 (NCI-H1975): 6770 nM

O=C1C=C(Nc2ccc(O)cc2)C(=O)c2ccccc21
IC50 (A2780): 3800 nM | IC50 (HT-29): 2680 nM | IC50 (HCT-116): 4170 nM | IC50 [5]: 19800 nM | IC50 [6]: 5350 nM

CC(C)n1c(/C=C/[C@H](O)C[C@H](O)CC(=O)O)c(-c2ccc(F)cc2)c2ccccc21
EC50 [7]: 950 nM | EC50 [8]: 9950 nM | IC50 [9]: < 10000 nM | IC50 [10]: < 10000 nM | IC50 (MDA-MB-231): < 10000 nM

COc1ccc2c(c1)/C(=N/NC(=O)c1nnn(-c3ccccc3N)c1-c1ccc(Cl)c(Cl)c1)C(=O)N2
IC50 [11]: 1700 nM

Nc1nonc1-n1nnc(C(=O)N/N=C2\C(=O)Nc3ccccc32)c1-c1ccc(Cl)c(Cl)c1
IC50 [11]: 6500 nM

COC(=O)c1cc(S(N)(=O)=O)ccc1NC1CCCCC1
IC50 [12]: 458 nM | IC50 (NCI-H2052): > 3000 nM

CC(NC(=O)c1cc2nc(N(C)C)n(-c3ccc(Br)cc3)c2s1)c1ccccn1 (centres undefined)
IC50 [12]: 391 nM | IC50 (NCI-H2052): 2030 nM

N#C[C@@H]1CCN(C(=O)c2cnn3c(=O)cc(-c4ccc(C5CCCCC5)cc4)[nH]c23)C1
IC50 [13]: 50 nM | IC50 [14]: 10 nM | IC50 [15]: 80 nM | IC50 [16]: 30 nM | IC50 [17]: 40 nM | IC50 [18]: 50 nM | IC50 [19]: 30 nM | IC50 [20]: 50 nM | IC50 [21]: 10 nM | IC50 [22]: 20 nM | IC50 [23]: 210 nM | IC50 [24]: 40 nM

CCOC(=O)c1cnn2c(=O)cc(-c3ccc(C(F)(F)F)cc3)[nH]c12
IC50 [13]: > 50000 nM | IC50 [14]: 2000 nM | IC50 [15]: 20000 nM | IC50 [16]: 1100 nM | IC50 [17]: 1300 nM | IC50 [18]: 1300 nM | IC50 [19]: > 5000 nM | IC50 [20]: 1400 nM | IC50 [21]: 3000 nM | IC50 [22]: 1600 nM | IC50 [23]: > 50000 nM | IC50 [24]: 700 nM

O=C(c1c(-c2cnccn2)nn2c(=O)cc(-c3ccc(C4CCCCC4)cc3)[nH]c12)N1CC(CF)C1
IC50 [13]: > 20 nM | Emin (OVCAR-8 [25]): 84% | IC50 [14]: 10 nM | EC50 [26]: > 50000 nM | IC50 [15]: 30 nM | IC50 [16]: 50 nM | IC50 [17]: 60 nM | IC50 [18]: 40 nM | IC50 [19]: 40 nM | IC50 [20]: 110 nM | IC50 [21]: 10 nM | Emin [27]: 67% | IC50 [22]: 20 nM | IC50 [23]: 50 nM | IC50 [24]: 40 nM | EC50 [28]: 190 nM | EC50 (OVCAR-8 [29]): 200 nM
